Measurements taken from the supplement of paper PMC10307832.

Assays:
Test in all cases: relative viability (nuclei count vs DMSO), 5 days (fraction); higher = more cells survive
IDH-C35 + Decitabine = compound: Cc1ccccc1C(C(=O)NC1CCCCC1)N(C(=O)Cn1ccnc1C)c1cccc(F)c1 [IDH-C35] + Nc1ncn([C@H]2C[C@H](O)[C@@H](CO)O2)c(=O)n1 [Decitabine] (partner 2 µM)
In short: (§1)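 Lung cancer cell lines were pin-tool dosed in 1536-well plates on the day after seeding, with either a lone drug or a fixed anchor-drug dose plus five library-drug doses (not always all listed) in √10 steps. Nuclei were counted on 4× images after 5 days. Relative viability is the ratio of treated-well to vehicle-well nuclei counts, with each value a median of duplicate plates.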

[1] = compound: CC1=C(C(=NN1)C)CC2=C(C3=C(S2)N(C(=O)N(C3=O)C)CC(C)C)C(=O)N4C[C@@H](CO4)O + O=C(c1cc(Cc2n[nH]c(=O)c3ccccc23)ccc1F)N1CCN(C(=O)C2CC2)CC1 [Olaparib] (partner 8 µM)
In short: as §1

[2] = compound: CC1=C(C(=NN1)C)CC2=C(C3=C(S2)N(C(=O)N(C3=O)C)CC(C)C)C(=O)N4C[C@@H](CO4)O + CS(=O)(=O)CCNCc1ccc(-c2ccc3ncnc(Nc4ccc(OCc5cccc(F)c5)c(Cl)c4)c3c2)o1 [Lapatinib] (partner 2 µM)
In short: as §1

IDH-C35 + Tozasertib = compound: Cc1ccccc1C(C(=O)NC1CCCCC1)N(C(=O)Cn1ccnc1C)c1cccc(F)c1 [IDH-C35] + Cc1cc(Nc2cc(N3CCN(C)CC3)nc(Sc3ccc(NC(=O)C4CC4)cc3)n2)n[nH]1 [Tozasertib] (partner 0.1 µM)
In short: as §1

Row | Cell Line | relative viability (IDH-C35 + Decitabine; first compound 0.08 µM) | relative viability (IDH-C35 + Decitabine; first compound 0.253 µM) | relative viability (IDH-C35 + Decitabine; first compound 0.8 µM) | relative viability (IDH-C35 + Decitabine; first compound 2.53 µM) | relative viability (IDH-C35 + Decitabine; first compound 8 µM) | relative viability ([1]; first compound 0.0025 µM) | relative viability ([1]; first compound 0.007906 µM) | relative viability ([1]; first compound 0.025 µM) | relative viability ([1]; first compound 0.07906 µM) | relative viability ([1]; first compound 0.25 µM) | relative viability ([2]; first compound 0.0025 µM) | relative viability ([2]; first compound 0.007906 µM) | relative viability ([2]; first compound 0.025 µM) | relative viability ([2]; first compound 0.07906 µM) | relative viability ([2]; first compound 0.25 µM) | relative viability (IDH-C35 + Tozasertib; first compound 0.08 µM) | relative viability (IDH-C35 + Tozasertib; first compound 0.253 µM) | relative viability (IDH-C35 + Tozasertib; first compound 0.8 µM) | relative viability (IDH-C35 + Tozasertib; first compound 8 µM) | relative viability (IDH-C35 + Tozasertib; first compound 2.53 µM)
1 | HARA | 0.434 | 0.438 | 0.625 | 0.504 | 0.505 | 1.1 | 0.76 | 0.689 | 0.542 | 0.81 | 0.664 | 0.81 | 0.637 | 0.671 | 0.696 | 0.0971 | 0.135 | 0.104 | 0.133 | –
2 | HCC-15 | 0.61 | 0.546 | 0.689 | 0.579 | 0.635 | 0.721 | 0.707 | 0.69 | 0.697 | 0.766 | 0.941 | 0.814 | 0.786 | 0.82 | 0.899 | 0.493 | 0.463 | 0.342 | 0.323 | –
3 | HCC-44 | 0.997 | 0.914 | 0.91 | 0.939 | 0.901 | 1.02 | 1 | 0.952 | 0.891 | 1.05 | 1.01 | 1.1 | 0.988 | 0.908 | 1.11 | 1.06 | 0.906 | 1 | 0.96 | 0.903
4 | HCC-78 | 0.701 | 0.579 | 0.703 | 0.605 | 0.707 | 0.826 | 1 | 0.92 | 0.854 | 0.798 | 0.92 | 0.691 | 0.738 | 0.577 | 0.733 | 0.403 | 0.363 | 0.388 | 0.254 | 0.383
5 | HCC-366 | 0.359 | 0.344 | 0.403 | 0.288 | 0.324 | 0.379 | 0.473 | 0.357 | 0.294 | 0.371 | 1.02 | 1.03 | 1.06 | 1.07 | 1.15 | 0.109 | 0.128 | 0.179 | 0.0826 | –
6 | IA-LM | – | – | – | – | – | 0.907 | 1.03 | 0.807 | 0.757 | 0.865 | 1.04 | 0.863 | 0.924 | 0.816 | 1.05 | – | – | – | – | –
7 | LCLC-103H | 0.81 | 0.676 | 0.726 | 0.744 | 0.834 | 0.797 | 0.735 | 0.762 | 0.753 | 0.773 | – | – | – | – | – | 0.554 | 0.435 | 0.47 | 0.38 | 0.499
8 | NCI-H441 | 0.279 | 0.23 | 0.272 | 0.244 | 0.228 | 0.648 | 0.529 | 0.521 | 0.478 | 0.593 | – | – | – | – | – | 0.597 | 0.561 | 0.623 | 0.583 | 0.624
9 | NCI-H522 | 0.604 | 0.795 | 0.72 | 0.652 | 0.716 | 0.793 | 0.646 | 0.53 | 0.4 | 0.348 | – | – | – | – | – | 0.545 | 0.543 | 0.589 | 0.611 | 0.581
10 | NCI-H1299 | – | – | – | – | – | 0.986 | 0.991 | 0.975 | 1.01 | 0.988 | 0.953 | 0.992 | 0.93 | 0.935 | 0.986 | – | – | – | – | –
11 | NCI-H1563 | – | – | – | – | – | – | – | – | – | – | 0.944 | 1.01 | 0.999 | 1.04 | 0.831 | – | – | – | – | –
12 | NCI-H1623 | – | – | – | – | – | – | – | – | – | – | – | – | – | – | – | 0.414 | 0.423 | 0.464 | 0.431 | 0.452
13 | NCI-H1648 | – | 0.598 | 0.502 | 0.51 | 0.441 | 0.878 | 0.724 | 0.63 | 0.782 | 0.887 | – | – | – | – | – | 0.567 | 0.499 | 0.511 | 0.541 | 0.525
14 | NCI-H1703 | – | – | – | – | – | 0.467 | 0.348 | 0.422 | 0.41 | 0.447 | 1.14 | 1.37 | 1.02 | 1.14 | 1.08 | – | – | – | – | –
15 | NCI-H1792 | 0.45 | 0.48 | 0.476 | 0.539 | 0.533 | 0.542 | 0.384 | 0.356 | 0.383 | 0.246 | 0.963 | 0.931 | 0.834 | 0.746 | 0.824 | – | – | – | – | –
16 | NCI-H2228 | – | – | – | – | – | 0.609 | 0.745 | 0.786 | 0.786 | 0.993 | 1.03 | 1.02 | 1.37 | 0.961 | 1.34 | 0.319 | 0.221 | 0.302 | 0.203 | 0.246
17 | NCI-H2342 | 0.719 | 0.745 | 0.757 | 0.714 | 0.744 | 0.463 | 0.473 | 0.374 | 0.425 | 0.403 | – | – | – | – | – | 0.482 | 0.54 | 0.483 | 0.442 | 0.494
18 | SW 900 | 0.467 | 0.396 | – | 0.472 | 0.438 | 0.805 | 1.09 | 0.846 | 1 | 0.893 | – | – | – | – | – | 0.51 | 0.645 | 0.585 | 0.508 | 0.615
